Tests used:
[1] = test system: cocklebur; test: Test B pre/postemergence cocklebur; format: in vivo, Xanthium strumarium
In short: (§1)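 Test chemicals in a non-phytotoxic solvent mixture with surfactant were sprayed preemergence onto planted seeds and postemergence onto plants 2 to 18 cm tall (1- to 4-leaf stage). After twelve to sixteen days in a greenhouse, injury was visually rated against untreated controls from 0 (no effect) to 10 (complete control).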

[2] = test system: pigweed; test: Test B pre/postemergence pigweed; format: in vivo, Amaranthus retroflexus
In short: as §1

[3] = test system: crabgrass; test: Test B pre/postemergence crabgrass; format: in vivo, Digitaria sanguinalis
In short: as §1

[4] = test system: sugar beet; test: Test B pre/postemergence sugar beet; format: in vivo, Beta vulgaris
In short: as §1

[5] = test system: morningglory; test: Test B pre/postemergence morningglory; format: in vivo, Ipomoea hederacea
In short: as §1

[6] = test system: surinam grass; test: Test B pre/postemergence surinam grass; format: in vivo, Brachiaria decumbens
In short: as §1

[7] = test system: corn; test: Test B pre/postemergence corn; format: in vivo, Zea mays
In short: as §1

[8] = test system: velvetleaf; test: Test B pre/postemergence velvetleaf; format: in vivo, Abutilon theophrasti
In short: as §1

[9] = test system: smallflower flatsedge; test: Test B flood test smallflower flatsedge; format: in vivo, Cyperus difformis
In short: (§2)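 Flood test on plants grown to the 2-leaf stage; treated plants kept in greenhouse twelve to sixteen days, then visually rated against controls on a 0 (no effect) to 10 (complete control) scale.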

[10] = test system: rice; test: Test B flood test rice; format: in vivo, Oryza sativa
In short: as §2

[11] = test system: rape; test: Test B pre/postemergence rape; format: in vivo, Brassica napus
In short: as §1

[12] = test system: bedstraw; test: Test B pre/postemergence bedstraw; format: in vivo, Galium aparine; conditions: Preemergence
In short: as §1

[13] = test system: giant foxtail; test: Test B pre/postemergence giant foxtail; format: in vivo, Setaria faberii
In short: as §1

[14] = test system: soybean; test: Test B pre/postemergence soybean; format: in vivo, Glycine max; conditions: for Plant response rating, Soybean: Rate 500 g/ha
In short: as §1

[15] = test system: blackgrass; test: Test B pre/postemergence blackgrass; format: in vivo, Alopecurus myosuroides
In short: as §1

[16] = test system: purple nutsedge; test: Test B pre/postemergence purple nutsedge; format: in vivo, Cyperus rotundus
In short: as §1

[17] = test system: wild oat; test: Test B pre/postemergence wild oat; format: in vivo, Avena fatua
In short: as §1

[18] = test system: bamyardgrass; test: Test B flood test barnyardgrass; format: in vivo, Echinochloa crus-galli
In short: as §2

[19] = test system: duck salad; test: Test B flood test duck salad; format: in vivo, Heteranthera limosa
In short: as §2

[20] = test system: wheat; test: Test B pre/postemergence wheat; format: in vivo, Triticum aestivum
In short: as §1

[21] = Postemergence, Rate 62 g/ha, scale of 0 to 10, 0 is no effect, 10 is complete control
[22] = Postemergence, Rate 125 g/ha, scale of 0 to 10 where 0 is no effect and 10 is complete control
[23] = Postemergence, Rate 250 g/ha, scale of 0 to 10, 0 is no effect, 10 is complete control
[24] = Postemergence, Rate 500 g/ha, scale of 0 to 10 where 0 is no effect and 10 is complete control
[25] = Preemergence, Rate 125 g/ha, scale of 0 to 10 where 0 is no effect and 10 is complete control
[26] = Preemergence, Rate 500 g/ha, scale of 0 to 10 where 0 is no effect and 10 is complete control
[27] = Preemergence, Rate 62 g/ha, scale 0 to 10 (0 no effect, 10 complete control)
[28] = Rate 62 g/ha, flood test species, Pre-emergence, visual evaluation after twelve to sixteen days
[29] = Rate 125 g/ha, under heading Pre-emergence, flood test species, visual evaluation after twelve to sixteen days
[30] = Rate 250 g/ha, Pre-emergence (flood test species), scale 0 to 10, 0 is no effect, 10 is complete control
[31] = Rate 500 g/ha, Pre-emergence section of Table B, 0 to 10 scale (0 no effect, 10 complete control)

For `CC(C)N(C(=O)n1oc(=O)n(C(CF)CF)c1=O)c1ccc(F)cc1F` [Compound 595], the “Cocklebur plant response rating” value [1, 21] was 0, the “Plant response rating, Cocklebur” value [1, 22] was 0 and the “Cocklebur plant response rating” value [1, 23] was 0. The “Plant response rating, Cocklebur” value [1, 24] was 2, the “Cocklebur plant response rating” value [1, 25] was 0 and the “Cocklebur plant response rating (0 to 10 scale)” value ([1]; Preemergence, Rate 250 g/ha) was 0. For the same compound, the “Plant response rating, Cocklebur” value [1, 26] was 0, the “Plant response rating, Redroot pigweed” value [2, 22] was 0 and the “Redroot pigweed plant response rating” value [2, 23] was 3. The “Plant response rating, Redroot pigweed” value [2, 24] was 7, the “Redroot pigweed plant response rating” value [2, 27] was 0 and the “Redroot pigweed plant response rating” value [2, 25] was 10. For the same compound, the “Plant response rating, Redroot pigweed” value [2, 26] was 10, the “Crabgrass plant response rating” value [3, 21] was 5 and the “Plant response rating, Crabgrass” value [3, 22] was 8. The “Crabgrass plant response rating” value [3, 23] was 9, the “Plant response rating, Crabgrass” value [3, 24] was 9 and the “Crabgrass plant response rating” value [3, 27] was 7. The “Crabgrass plant response rating” value [3, 25] was 9, the “Plant response rating, Crabgrass” value [3, 26] was 10 and the “Plant response rating, Sugarbeets” value [4, 22] was 3. For the same compound, the “Sugarbeets plant response rating” value [4, 23] was 3, the “Plant response rating, Sugarbeets” value [4, 24] was 3 and the “Sugarbeets plant response rating” value [4, 27] was 6. For the same compound, the “Sugarbeets plant response rating” value [4, 25] was 8, the “Plant response rating, Sugarbeets” value [4, 26] was 9 and the “Morningglory plant response rating” value [5, 21] was 1. For the same compound, the “Plant response rating, Morningglory” value [5, 22] was 2, the “Morningglory plant response rating” value [5, 23] was 3 and the “Plant response rating, Morningglory” value [5, 24] was 6. The “Morningglory plant response rating” value [5, 27] was 0, the “Morningglory plant response rating” value [5, 25] was 0 and the “Plant response rating, Morningglory” value [5, 26] was 6. The “B. signalgrass plant response rating” value [6, 21] was 0, the “Plant response rating, B. signalgrass” value [6, 22] was 0 and the “B. signalgrass plant response rating” value [6, 23] was 6. The “Plant response rating, B. signalgrass” value [6, 24] was 6, the “B. signalgrass plant response rating” value [6, 27] was 2 and the “B. signalgrass plant response rating” value [6, 25] was 6. The “B. signalgrass plant response rating (0 to 10 scale, 0 is no effect, 10 is complete control)” value ([6]; Preemergence, Rate 250 g/ha) was 7, the “B. signalgrass plant response rating” value [6, 26] was 9 and the “Corn plant response rating” value [7, 21] was 0. For the same compound, the “Plant response rating, Corn” value [7, 22] was 0, the “Corn plant response rating” value [7, 23] was 2 and the “Plant response rating, Corn” value [7, 24] was 3. The “Corn plant response rating” value [7, 27] was 0, the “Corn plant response rating” value [7, 25] was 0 and the “Corn plant response rating (0 to 10 scale)” value ([7]; Preemergence, Rate 250 g/ha) was 4. For the same compound, the “Plant response rating, Corn” value [7, 26] was 6, the “Plant response rating, Velvetleaf” value [8, 22] was 4 and the “Velvetleaf plant response rating” value [8, 23] was 7. For the same compound, the “Plant response rating, Velvetleaf” value [8, 24] was 7, the “Velvetleaf plant response rating” value [8, 27] was 7 and the “Velvetleaf plant response rating” value [8, 25] was 7. For the same compound, the “Plant response rating, Velvetleaf” value [8, 26] was 9, the “Plant response rating, S. Flatsedge (0 to 10 scale, 0 is no effect, 10 is complete control)” value [9, 28] was 0 and the “S. Flatsedge plant response rating (0 to 10 scale, 0 is no effect, 10 is complete control)” value [9, 29] was 0. The “S. Flatsedge plant response rating” value [9, 30] was 0, the “S. Flatsedge plant response rating” value [9, 31] was 0 and the “Plant response rating, Rice (0 to 10 scale, 0 is no effect, 10 is complete control)” value [10, 28] was 0. The “Rice plant response rating (0 to 10 scale, 0 is no effect, 10 is complete control)” value [10, 29] was 0, the “Rice plant response rating” value [10, 30] was 0 and the “Rice plant response rating” value [10, 31] was 0. For the same compound, the “Rape plant response rating” value [11, 21] was 0, the “Plant response rating, Rape” value [11, 22] was 0 and the “Rape plant response rating” value [11, 23] was 2. For the same compound, the “Plant response rating, Rape” value [11, 24] was 2, the “Rape plant response rating” value [11, 27] was 4 and the “Rape plant response rating” value [11, 25] was 4. For the same compound, the “Plant response rating, Rape” value [11, 26] was 10, the “Bedstraw plant response rating” value ([12]; Rate 62 g/ha, scale 0 to 10 (0 no effect, 10 complete control)) was 0 and the “Bedstraw plant response rating” value ([12]; Rate 125 g/ha, scale of 0 to 10 where 0 is no effect and 10 is complete control) was 8. For the same compound, the “Bedstraw plant response rating” value ([12]; Rate 500 g/ha, scale of 0 to 10 where 0 is no effect and 10 is complete control) was 10, the “Giant foxtail plant response rating” value [13, 21] was 8 and the “Plant response rating, Giant foxtail” value [13, 22] was 9. For the same compound, the “Giant foxtail plant response rating” value [13, 23] was 9, the “Plant response rating, Giant foxtail” value [13, 24] was 9 and the “Giant foxtail plant response rating” value [13, 27] was 10. The “Giant foxtail plant response rating” value [13, 25] was 10, the “Plant response rating, Giant foxtail” value [13, 26] was 9 and the “Soybean plant response rating” value [14, 23] was 4. For the same compound, the “Plant response rating, Soybean” value ([14]; Postemergence, scale of 0 to 10 where 0 is no effect and 10 is complete control) was 4, the “Soybean plant response rating” value [14, 27] was 0 and the “Soybean plant response rating” value [14, 25] was 1. For the same compound, the “Plant response rating, Soybean” value ([14]; Preemergence, scale of 0 to 10 where 0 is no effect and 10 is complete control) was 4, the “Blackgrass plant response rating” value [15, 21] was 3 and the “Plant response rating, Blackgrass” value [15, 22] was 7. For the same compound, the “Blackgrass plant response rating” value [15, 23] was 9, the “Plant response rating, Blackgrass” value [15, 24] was 9 and the “Blackgrass plant response rating” value [15, 27] was 6. The “Blackgrass plant response rating” value [15, 25] was 9, the “Blackgrass plant response rating (0 to 10 scale)” value ([15]; Preemergence, Rate 250 g/ha) was 10 and the “Blackgrass plant response rating” value [15, 26] was 10. The “Nutsedge plant response rating” value [16, 21] was 0, the “Plant response rating, Nutsedge” value [16, 22] was 0 and the “Nutsedge plant response rating” value [16, 23] was 0. For the same compound, the “Plant response rating, Nutsedge” value [16, 24] was 5, the “Nutsedge plant response rating” value [16, 25] was 3 and the “Plant response rating, Nutsedge” value [16, 26] was 4. For the same compound, the “Plant response rating, Wild oats” value [17, 22] was 0, the “Wild oats plant response rating” value [17, 23] was 2 and the “Plant response rating, Wild oats” value [17, 24] was 4. For the same compound, the “Wild oats plant response rating” value [17, 27] was 3, the “Wild oats plant response rating” value [17, 25] was 8 and the “Plant response rating, Wild oats” value [17, 26] was 9. The “Plant response rating, Barnyardgrass (0 to 10 scale, 0 is no effect, 10 is complete control)” value [18, 28] was 0, the “Barnyardgrass plant response rating (0 to 10 scale, 0 is no effect, 10 is complete control)” value [18, 29] was 0 and the “Barnyardgrass plant response rating” value [18, 30] was 0. The “Barnyardgrass plant response rating” value [18, 31] was 0, the “Plant response rating, Ducksalad (0 to 10 scale, 0 is no effect, 10 is complete control)” value [19, 28] was 0 and the “Ducksalad plant response rating (0 to 10 scale, 0 is no effect, 10 is complete control)” value [19, 29] was 0. For the same compound, the “Ducksalad plant response rating” value [19, 30] was 0, the “Ducksalad plant response rating” value [19, 31] was 0 and the “Plant response rating, Wheat” value [20, 22] was 0. For the same compound, the “Wheat plant response rating” value [20, 23] was 2, the “Plant response rating, Wheat” value [20, 24] was 3 and the “Wheat plant response rating” value [20, 27] was 0. The “Wheat plant response rating” value [20, 25] was 1 and the “Plant response rating, Wheat” value [20, 26] was 6.

— patent US6737383B1, “Herbicidal oxadiazolidines” (priority 1999, dated 2004)
